# Data reported in ChEMBL document CHEMBL4411297, “Discovery, synthesis and anti-atherosclerotic activities of a novel selective sphingomyelin synthase 2 inhibitor” (Eur J Med Chem, 2019).
# The source made the active and inactive calls. No cut-off for these calls is given here.
# Tested on: not listed separately
# Assay: Inhibition of SMS (unknown origin)
# Design: species or system Homo sapiens
row,IC50,SMILES
1,177000 to 600000 nM,S=C(S)O[C@@H]1C[C@H]2C[C@@H]1[C@H]1CCC[C@@H]21

# Target: T1, Phosphatidylcholine:ceramide cholinephosphotransferase 2 (Homo sapiens) (UniProt Q8NHU3)
# T1 sequence (whole entry): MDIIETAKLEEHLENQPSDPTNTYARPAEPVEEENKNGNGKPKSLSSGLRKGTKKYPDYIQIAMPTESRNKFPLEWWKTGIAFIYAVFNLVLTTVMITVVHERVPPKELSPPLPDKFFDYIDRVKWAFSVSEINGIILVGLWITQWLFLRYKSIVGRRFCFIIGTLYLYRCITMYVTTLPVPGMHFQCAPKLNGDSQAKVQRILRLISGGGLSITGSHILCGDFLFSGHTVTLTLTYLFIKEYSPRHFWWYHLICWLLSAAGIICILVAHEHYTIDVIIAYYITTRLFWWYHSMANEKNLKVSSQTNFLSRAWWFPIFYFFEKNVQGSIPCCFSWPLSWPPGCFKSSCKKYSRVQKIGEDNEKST
# Assay: Inhibition of SMS2 (unknown origin) over-expressed in H5 insect cell lysate at 100 uM using C6-NBD-Ceramide and DMPC as substrates preincubated for 30 mins followed by substrate addition and measured after 2 hrs by TLC or HPLC method relative to control
# Format: subcellular
row,inhibition,SMILES
1,inactive,c1ccc(COc2ccccc2CNc2ccccc2)cc1
2,69%,O=C(Nc1ccccc1)c1ccccc1OCc1ccccc1
3,inactive,c1ccc(COc2ccccc2C(Nc2ccccc2)c2nnn[nH]2)cc1 (configuration not stated)
4,39%,NC(=O)C(Nc1ccccc1)c1ccccc1OCc1ccccc1 (configuration not stated)
5,75%,N#CC(Nc1ccccc1)c1ccccc1OCc1ccccc1 (configuration not stated)
6,58%,CC(C#N)(Nc1ccccc1)c1ccccc1OCc1ccccc1 (configuration not stated)

# Target: T2, Phosphatidylcholine:ceramide cholinephosphotransferase 2 (Homo sapiens, UniProt Q8NHU3)
# T2 sequence (Q8NHU3 whole entry): T1 sequence (whole entry)
# Assay: Inhibition of SMS2 (unknown origin) over-expressed in H5 insect cell lysate using C6-NBD-Ceramide and DMPC as substrates preincubated for 30 mins followed by substrate addition and measured after 2 hrs by TLC or HPLC method
# Format: subcellular
row,SMILES,IC50
1,COc1ccc(OC)c(COc2ccccc2C(=O)Nc2cccnc2)c1,2800 nM
2,Cc1c(Cl)cccc1COc1ccccc1C(=O)Nc1cccnc1,3800 nM
3,O=C(NC1CCCNC1)c1ccccc1OCc1ccccc1Cl (configuration not stated),> 100000 nM
4,O=C(NCc1ccco1)c1ccccc1OCc1ccccc1,49000 nM
5,N#Cc1cccc(COc2ccccc2C(=O)Nc2cccnc2)c1,60700 nM
6,O=C(Nc1ccccc1)c1ccccc1OCc1ccccc1,13400 nM
7,O=C(NCc1ccccc1)c1ccccc1OCc1ccccc1,34200 nM
8,N#Cc1ccccc1COc1ccccc1C(=O)Nc1cccnc1,31800 nM
9,O=C(Nc1cccnc1)c1ccccc1OCc1ccccc1,3200 nM
10,O=C(NC1CCCCC1)c1ccccc1OCc1ccccc1,43400 nM
11,CC(C#N)(Nc1ccccc1)c1ccccc1OCc1ccccc1 (configuration not stated),34000 nM

# Second part, the compound after the results:
row,IC50,SMILES
1,2100 nM,O=C(Nc1cccnc1)c1ccccc1OCc1ccccc1C(F)(F)F
2,1100 nM,Cc1ccc(Cl)cc1COc1ccccc1C(=O)Nc1cccnc1
3,690 nM,O=C(Nc1cccnc1)c1ccccc1OCc1c(Cl)cccc1Cl
4,990 nM,O=C(Nc1cccnc1)c1ccccc1OCc1cc(Cl)ccc1Cl
5,890 nM,Cc1cccc(C)c1COc1ccccc1C(=O)Nc1cccnc1
6,740 nM,O=C(Nc1cccnc1)c1ccccc1OCc1cc(F)ccc1Cl
7,520 nM,CCCCCCOc1ccc(Cl)cc1COc1ccccc1C(=O)Nc1cccnc1
8,670 nM,COc1ccc(Cl)cc1COc1ccccc1C(=O)Nc1cccnc1
9,1100 nM,O=C(Nc1cccnc1)c1ccccc1OCc1ccccc1Cl
10,740 nM,Cc1ccc(F)cc1COc1ccccc1C(=O)Nc1cccnc1
11,470 nM,O=C(Nc1cccnc1)c1ccccc1OCc1ccccc1OCCCCCCCl
12,1300 nM,O=C(Nc1cccnc1)c1ccccc1OCc1ccccc1OCCCCCl
13,430 nM,CCCCCCCOc1ccc(Cl)cc1COc1ccccc1C(=O)Nc1cccnc1
14,670 nM,O=C(Nc1cccnc1)c1ccccc1OCc1ccccc1OCCCCCCl
